Results on two molecules are retold here after ChEMBL document CHEMBL5143508, “Design, synthesis and biological evaluation of novel o-aminobenzamide derivatives as potential anti-gastric cancer agents in vitro and in vivo” (Eur J Med Chem, 2022).

Several values for one entry are separate records, joined by “and”; a condition that tells them apart may be missing. Identical values can stand only once. Activity calls are given as the source filed them. No cut-off for these calls is given here.

The test system of data set [1] is HGC-27. Description: Induction of cell cycle arrest in human HGC-27 cells assessed as reduction in accumulation of cells at S phase at 0.5 to 8 uM incubated for 24 hrs by PI staining based flow cytometry analysis. As to conditions: dose 0.5-8 µM. In kind it is functional. (Flow cytometry measures light scatter and fluorescence of single cells or particles in a stream.)

In data set [2] the test system is HGC-27. The data set can be described thus: Induction of apoptosis in human HGC-27 cells assessed as late apoptotic cells at 8 uM incubated for 48 hrs by annexin V FITC/propidium iodide staining based flow cytometry (reference value: 5.14 %). Format: functional.
The test system of data set [3] is HGC-27. The data set can be described thus: Induction of cell cycle arrest in human HGC-27 cells assessed as upregulation of p27 expression at 0.5 to 8 uM incubated for 48 hrs by Western blot analysis. In kind it is functional, cell-based. The note with it: dose 0.5-8 µM. For orientation: In western blotting, separated proteins are transferred to a membrane and probed.

In data set [4] the test system is HGC-27. Description: Induction of cell cycle arrest in human HGC-27 cells assessed as reduction in accumulation of cells at G2/M phase at 0.5 to 8 uM incubated for 24 hrs by PI staining based flow cytometry analysis. As to conditions: dose 0.5-8 µM. In kind it is functional.
The test system of data set [5] is MGC-803. The data set can be described thus: Induction of cell cycle arrest in human MGC-803 cells assessed as reduction in accumulation of cells at G2/M phase at 2.5 to 10 uM incubated for 24 hrs by PI staining based flow cytometry analysis. In kind it is functional. The note with it: dose 2.5-10 µM.
The test system of data set [6] is HGC-27. Description: Induction of apoptosis in human HGC-27 cells assessed as viable cells at 2 uM incubated for 48 hrs by annexin V FITC/propidium iodide staining based flow cytometry (reference value: 93.0 %). Format: functional. The note with it: read-out: Activity.
Data set [7] deals with MGC-803. The data set can be described thus: Induction of cell cycle arrest in human MGC-803 cells assessed as reduction in accumulation of cells at G0/G1 phase at 2.5 to 10 uM incubated for 24 hrs by PI staining based flow cytometry analysis. As to conditions: dose 2.5-10 µM. Format: functional.
Data set [8] concerns MGC-803. Description: Induction of apoptosis in human MGC-803 cells assessed as viable cells at 2.5 uM incubated for 48 hrs by annexin V FITC/propidium iodide staining based flow cytometry (reference value: 94.4 %). In kind it is functional. The note with it: read-out: Activity.
Data set [9] is described as follows: Toxicity in BALB/c mouse xenografted with human HGC-27 cells assessed as lymphocyte level at 150 mg/kg, po bid for 19 days. Format: organism-based. The note with it: in vivo, 456 h, time 19 day. Background: In xenograft studies the graft and the host belong to different species.
In data set [10] the test system is HGC-27. Description: Induction of apoptosis in human HGC-27 cells assessed as upregulation in cleaved caspase-9 expression at 0.1 to 1.6 uM incubated for 48 hrs by Western blot analysis. As to conditions: dose 0.1-1.6 µM. In kind it is functional, cell-based.
Data set [11] is described as follows: Acute toxicity in Kunming mouse assessed as mouse survival at 1000 mg/kg, po measured after 14 days. The note with it: in vivo, 336 h, time 14 day. In kind it is organism-based.
Data set [12] can be described thus: Acute toxicity in Kunming mouse assessed as effect on lung pathology at 1000 mg/kg, po measured after 14 days. In kind it is organism-based. As to conditions: in vivo, 336 h, time 14 day.
A short description of data set [13]: Toxicity in BALB/c mouse xenografted with human HGC-27 cells assessed as monocyte level at 150 mg/kg, po bid for 19 days. In kind it is organism-based. The note with it: in vivo, 456 h, time 19 day.
Data set [14] relates to MGC-803. The data set can be described thus: Induction of apoptosis in human MGC-803 cells assessed as early apoptotic cells at 20 uM incubated for 48 hrs by annexin V FITC/propidium iodide staining based flow cytometry (reference value: 0.42 %). In kind it is functional.
The subject of data set [15] is MGC-803. The data set can be described thus: Induction of cell cycle arrest in human MGC-803 cells assessed as reduction in accumulation of cells at G0/G1 phase at 5 to 20 uM incubated for 24 hrs by PI staining based flow cytometry analysis. Format: functional. As to conditions: dose 5-20 µM.
Data set [16] in a line: Acute toxicity in Kunming mouse assessed as effect on heart pathology at 1000 mg/kg, po measured after 14 days. In kind it is organism-based. As to conditions: in vivo, 336 h, time 14 day.
Data set [17] has as its system HGC-27. The data set can be described thus: Induction of apoptosis in human HGC-27 cells assessed as upregulation in cleaved caspase-3 expression at 0.1 to 1.6 uM incubated for 48 hrs by Western blot analysis. Format: functional, cell-based. The note with it: dose 0.1-1.6 µM.
Data set [18] has as its system HGC-27. The data set can be described thus: In vivo induction of apoptosis in human HGC-27 cells xenografted in BALB/c mouse assessed as increase in cleaved caspase-3 expression at 75 to 150 mg/kg , po bid administered for 19 days and measured by immunohistochemical analysis. Format: functional, organism-based. As to conditions: dose 75-150 mg/kg, time 19.0 day.

In the case of `O=C(NCc1ccc(NC(=O)c2ccccc2N2CCCC2)cc1)OCc1cccnc1`, the outcome in data set [1], in data set [3], in data set [4], in [5] and in [7] was Active. The Activity in data set [2] came out at 49.1%. Further, the viability at 2 µM in [6] worked out at 30.4%. Moreover, the viability at 2.5 µM in data set [8] was found to be 80.3%.
Turning to `O=C(NCc1ccc(NC(=O)c2cc(F)ccc2N2CCCC2)cc1)OCc1cccnc1`, the Activity was 5.77 10^9/L and 7.2% in data set [9]; “Non-Toxic” in data set [11]; “Non-Toxic” in [12]; 1.7 10^9/L and 2.13% in data set [13]; 16.8% in data set [14]; “Non-Toxic” in [16]. The outcome in [10], in data set [15], in data set [17] and in data set [18] was Active.
